# Patent US5789383A, “Bradykinin antagonists for the prophylaxis or treatment of virus diseases” (Hoechst Aktiengesellschaft, priority 1993, dated 1998)
# System: HSV-1
# Assay: HOE 140 in combination with acyclovir on HSV-1 skin lesions in hairless mice, Experiment 24/94
# Assay type: in vivo
# Details: acyclovir 0.05% orally day 3-7, no HOE 140
# Description: Investigation of the Action of HOE 140 on Skin Lesions Caused by HSV-1 in Hairless Mice in Combination with Acyclovir
# HOE 140 was administered twice daily either topically as a 2% strength cream in a neutral base or subcutaneously with 2 mg/kg per dosage. Acyclovir was administered as a 0.05% strength solution in the drinking water.
# Administration of acyclovir day 3-7
# Administration of HOE 140 day 3-7 or 0-7
smiles,measurement,setting,value
"Nc1nc2c(ncn2COCCO)c(=O)[nH]1 [Acyclovir, acyclovir]",Average survival time,,7.3 ± 1.2 days
same,Survivors/group size,chi^2 test not significant,2/8
same,Animals with zoster formation,group size 8,7
